Values quoted from earlier work in patent US7988985B2, “Pest repellent compositions and methods” (priority 2008, dated 2011).

Experiments:
[1] = test system: mosquitoes (e.g., Anopheles, Culex pipiens, and Aeges aegypti); conditions: High-strength formulations containing up to 100% DEET, 95%+ effective
[2] = test system: biting-insect; conditions: Low-strength formulations containing 12.5% DEET
[3] = test system: blackflies (Simulium spp.); conditions: High-strength formulations containing up to 100% DEET

CCN(CC)C(=O)c1cccc(C)c1 [DEET, N,N,-diethyl-m-toluamide]
duration of effectiveness [1]: 10 to 12 h
effective (repellent effectiveness) [2]: 60-75%
effective (repellent effectiveness) [3]: ≥ 95%
duration of effectiveness ([3]; 95%+ effective): over 4 hours
